Results published in paper PMC8196580, “Identification of Kaurane-Type Diterpenes as Inhibitors of Leishmania Pteridine Reductase I” (Molecules, 2021).
Read-outs that look alike come from different tables or passages of the source.

How the values were obtained:
L. major [1] = assay: ChEMBL dataset of pIC50 values against L. major used for the RF model (Table S1); type: cell-based, Leishmania major; note: call rule not given here
L. major [2] = system: L. major; set-up: method as in ChEMBL; details: ref ChEMBL, cited from earlier work
[3] = Active/Inactive class assigned to ChemBL structures for Random forest model construction (Table S1)
[4] = ChemBL structures with pIC50 values used for Random forest model construction (Table S1)
[5] = Active/Inactive class assigned to the ChEMBL pIC50 value for Random forest model construction, ref ChEMBL
[6] = ChemBL structures with pIC50 values used for Random forest model construction, L. major

Structure (SMILES) | Outcome (L. major [1]; [3]) | pIC50 Value (L. major [2]; [4]) | Outcome (L. major [1]; [5]) | pIC50 Value (L. major [2]; [6])
CCCc1ccc(-[n+]2c(C)cc3cc(OC)cc(OC)c3c2C)cc1.F[B-](F)(F)F [CHEMBL517690] | Active | 5.79 | – | –
COc1cc(OC)c2c(C)[n+](-c3ccc(C(C)C)cc3)c(C)cc2c1 [CHEMBL481022] | Active | 5.70 | – | –
Clc1cc(Cl)cc(-c2nc3ccccn3c2-c2cccnc2)c1 [CHEMBL2151990] | – | – | Inactive | 4.50
O=C(O)CN1CN(CCO)CSC1=S [CHEMBL4290046] | – | – | Inactive | 4.40
Cn1cc(C2N(c3ccccc3)C(=O)C2(c2ccccc2)c2ccccc2)c2ccccc21 (stereo not drawn) [CHEMBL2071560] | Active | 5.85 | – | –
COc1ccc2c(c1)C=C(C(=O)/C=C/c1ccc(Cl)c(Cl)c1)CO2 [CHEMBL3329269] | Active | 6.00 | – | –
O=C(CCCCl)N1c2ccccc2Oc2ccc(Cl)cc21 [CHEMBL3759213] | – | – | Inactive | 4.00
Cc1nc(-c2ccccn2)nc(N2CCC(Cc3ccccc3)C2)c1Cl (stereo not drawn) [CHEMBL474899] | – | – | Active | 5.05
CN(C)CCNc1nccn2c(I)c(-c3ccc(F)cc3)nc12 [CHEMBL3634360] | – | – | Inactive | 4.61
C[C@H](OP(N)(=O)N(CCCl)CCCl)c1ccc([N+](=O)[O-])cc1 (stereo partly drawn) [CHEMBL2158072] | – | – | Inactive | 4.52
O=C(/C=C/c1ccc(-n2ccnc2)cc1)c1ccccc1Br [CHEMBL569130] | Active | 5.61 | – | –
NP(=O)(OCc1ccc([N+](=O)[O-])cc1C(F)(F)F)N(CCCl)CCCl (stereo not drawn) [CHEMBL1257016] | – | – | Active | 5.23
C=C[C@@]1(C)CC2=C(C[C@H]1C(=C)C)C(=O)C=CC2=O [CHEMBL401583] | – | – | Inactive | 4.06
Cc1ccc2cc(C3CC(c4cc(C)sc4C)=NN3)c(Cl)nc2c1 (stereo not drawn) [CHEMBL2236139] | Active | 5.67 | – | –
O=C(CCCl)N1c2ccccc2Oc2ccccc21 [CHEMBL3759988] | – | – | Inactive | 4.41
c1ccc2[nH]c(-c3ccncc3)nc2c1 [CHEMBL379376] | Active | 5.35 | – | –
CCc1ccc(Nc2ncnc3ccc([N+](=O)[O-])cc23)cc1 [CHEMBL3759644] | – | – | Inactive | 4.42
O=C(/C=C/c1ccc(-n2ccnc2)cc1)c1ccc(Cl)cc1Cl [CHEMBL570849] | Active | 5.68 | – | –
COc1ccccc1C(=O)N/N=C/c1cccc(O)c1 [CHEMBL2382036] | – | – | Inactive | 4.48
Cn1cc(/C=N/c2ccc(Cl)cc2)c2ccccc21 [CHEMBL2071555] | Active | 5.67 | – | –
COc1cc2c(c(OC)c1-c1c(C)cc3cccc(OC)c3c1O)C(C)=N[C@@H](C)C2 [CHEMBL222436] | – | – | Inactive | 4.00
CCOC(=N)c1ccc(N2CCN(c3nnc(-c4ccc([N+](=O)[O-])o4)s3)CC2)cc1.Cl [CHEMBL1783199] | – | – | Inactive | 4.32
C/C=C/C1=C(OC)C(=O)C(OC)=C(OC)C1=O [CHEMBL454996] | – | – | Inactive | 4.14
O=C(c1ccc(Cl)s1)N1CCN(c2nnc(-c3ccc([N+](=O)[O-])o3)s2)CC1 [CHEMBL516307] | – | – | Inactive | 4.93
COC(=O)C1=C(C)NC(C)=C(C(=O)OCCN(C)Cc2ccccc2)C1c1cccc([N+](=O)[O-])c1 (stereo not drawn) [CHEMBL1484] | – | – | Inactive | 4.66
C=C[C@@]1(C)CC2=C(C[C@H]1C(=C)C)C(O)C=CC2O (stereo partly drawn) [CHEMBL257133] | – | – | Inactive | 4.74
Cc1cc2ccc(-c3c(C)cc(O)c4c(O)cccc34)c(O)c2c(C)n1 [CHEMBL222338] | – | – | Inactive | 4.00
